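Growth conditions: 96-well plates. Treatment: test compound, 48 hours, 5 concentrations. Analysis: linear interpolation between bracketing concentrations; unreached endpoints set to highest concentration. TGI denotes the concentration required for complete inhibition of growth.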
Assays:
Experiment in all cases: NCI-60 cell line screen, 48 h
SK-OV-3 ovarian = test system: SK-OV-3 ovarian
SK-MEL-28 melanoma = test system: SK-MEL-28 melanoma
NCI-H23 lung = test system: NCI-H23 lung
DLD-1 colon = test system: DLD-1 colon
M19-MEL melanoma = test system: M19-MEL melanoma
CCRF-CEM leukemia = test system: CCRF-CEM leukemia
LXFL 529 NSCLC = test system: LXFL 529 NSCLC
HOP-92 NSCLC = test system: HOP-92 NSCLC
DMS 114 small cell lung = test system: DMS 114 small cell lung
RPMI-8226 leukemia = test system: RPMI-8226 leukemia
MOLT-4 leukemia = test system: MOLT-4 leukemia
SNB-75 CNS = test system: SNB-75 CNS
UACC-62 melanoma = test system: UACC-62 melanoma
K-562 leukemia = test system: K-562 leukemia
KM12 colon = test system: KM12 colon
IGROV1 ovarian = test system: IGROV1 ovarian
OVCAR-3 ovarian = test system: OVCAR-3 ovarian
HOP-18 NSCLC = test system: HOP-18 NSCLC
EKVX NSCLC = test system: EKVX NSCLC
ACHN renal = test system: ACHN renal
DMS 273 small cell lung = test system: DMS 273 small cell lung
MALME-3M melanoma = test system: MALME-3M melanoma
SF-539 CNS = test system: SF-539 CNS
NCI-H522 lung = test system: NCI-H522 lung
UACC-257 melanoma = test system: UACC-257 melanoma
HCC-2998 colon = test system: HCC-2998 colon
M14 melanoma = test system: M14 melanoma
SNB-19 CNS = test system: SNB-19 CNS
RXF 393 renal = test system: RXF 393 renal
KM20L2 colon = test system: KM20L2 colon
SF-295 CNS = test system: SF-295 CNS
HCT-116 colon = test system: HCT-116 colon
786-0 renal = test system: 786-0 renal
A498 renal = test system: A498 renal
A549 NSCLC = test system: A549 NSCLC
NCI-H460 lung = test system: NCI-H460 lung
SN12C renal = test system: SN12C renal
HOP-62 NSCLC = test system: HOP-62 NSCLC
SNB-78 CNS = test system: SNB-78 CNS
OVCAR-4 ovarian = test system: OVCAR-4 ovarian
SF-268 CNS = test system: SF-268 CNS
OVCAR-8 ovarian = test system: OVCAR-8 ovarian
OVCAR-5 ovarian = test system: OVCAR-5 ovarian
SK-MEL-2 melanoma = test system: SK-MEL-2 melanoma
COLO 205 colon = test system: COLO 205 colon
TK-10 renal = test system: TK-10 renal
HCT-15 colon = test system: HCT-15 colon
UO-31 renal = test system: UO-31 renal
HL-60(TB) leukemia = test system: HL-60(TB) leukemia
HT29 colon = test system: HT29 colon
LOX IMVI melanoma = test system: LOX IMVI melanoma
SW-620 colon = test system: SW-620 colon
U251 CNS = test system: U251 CNS
NCI-H226 lung = test system: NCI-H226 lung
T-47D breast = test system: T-47D breast
MDA-MB-231 breast = test system: MDA-MB-231 breast
SR leukemia = test system: SR leukemia
PC-3 prostate = test system: PC-3 prostate
DU-145 prostate = test system: DU-145 prostate
BT-549 breast = test system: BT-549 breast
MDA-MB-435 = test system: MDA-MB-435
NCI/ADR-RES ovarian = test system: NCI/ADR-RES ovarian
CAKI-1 renal = test system: CAKI-1 renal
MCF7 breast = test system: MCF7 breast
SK-MEL-5 melanoma = test system: SK-MEL-5 melanoma
HS 578T breast = test system: HS 578T breast
MDA-N = test system: MDA-N

For `COc1cc(C(=O)NO)ccc1O`, the TGI (SK-OV-3 ovarian) was > 100 µM, the TGI (SK-MEL-28 melanoma) was > 100 µM and the TGI (NCI-H23 lung) was > 100 µM. The TGI (DLD-1 colon) was > 100 µM, the TGI (M19-MEL melanoma) was > 100 µM and the TGI (CCRF-CEM leukemia) was > 100 µM. For the same compound, the TGI (LXFL 529 NSCLC) was > 100 µM, the TGI (HOP-92 NSCLC) was > 100 µM and the TGI (DMS 114 small cell lung) was > 100 µM. The TGI (RPMI-8226 leukemia) was > 100 µM, the TGI (MOLT-4 leukemia) was > 100 µM and the TGI (SNB-75 CNS) was > 100 µM. The TGI (UACC-62 melanoma) was > 100 µM, the TGI (K-562 leukemia) was > 100 µM and the TGI (KM12 colon) was > 100 µM. For the same compound, the TGI (IGROV1 ovarian) was > 100 µM, the TGI (OVCAR-3 ovarian) was > 100 µM and the TGI (HOP-18 NSCLC) was > 100 µM. The TGI (EKVX NSCLC) was > 100 µM, the TGI (ACHN renal) was > 100 µM and the TGI (DMS 273 small cell lung) was > 100 µM. The TGI (MALME-3M melanoma) was > 100 µM, the TGI (SF-539 CNS) was > 100 µM and the TGI (NCI-H522 lung) was > 100 µM. For the same compound, the TGI (UACC-257 melanoma) was > 100 µM, the TGI (HCC-2998 colon) was > 100 µM and the TGI (M14 melanoma) was > 100 µM. The TGI (SNB-19 CNS) was > 100 µM, the TGI (RXF 393 renal) was > 100 µM and the TGI (KM20L2 colon) was > 100 µM. The TGI (SF-295 CNS) was > 100 µM, the TGI (HCT-116 colon) was > 100 µM and the TGI (786-0 renal) was > 100 µM. The TGI (A498 renal) was > 100 µM, the TGI (A549 NSCLC) was > 100 µM and the TGI (NCI-H460 lung) was > 100 µM. The TGI (SN12C renal) was > 100 µM, the TGI (HOP-62 NSCLC) was > 100 µM and the TGI (SNB-78 CNS) was > 100 µM. For the same compound, the TGI (OVCAR-4 ovarian) was > 100 µM, the TGI (SF-268 CNS) was > 100 µM and the TGI (OVCAR-8 ovarian) was > 100 µM. The TGI (OVCAR-5 ovarian) was > 100 µM, the TGI (SK-MEL-2 melanoma) was > 100 µM and the TGI (COLO 205 colon) was > 100 µM. The TGI (TK-10 renal) was > 100 µM, the TGI (HCT-15 colon) was > 100 µM and the TGI (UO-31 renal) was > 100 µM. For the same compound, the TGI (HL-60(TB) leukemia) was > 100 µM, the TGI (HT29 colon) was > 100 µM and the TGI (LOX IMVI melanoma) was > 100 µM. For the same compound, the TGI (SW-620 colon) was > 100 µM and the TGI (U251 CNS) was > 100 µM.

With `CC1CSC(=S)N1C(=O)N1C(=S)SCC1C` (centres undefined) the TGI (SK-OV-3 ovarian) was > 100 µM, the TGI (SK-MEL-28 melanoma) was 41.9 µM and the TGI (NCI-H23 lung) was 43.1 µM. It also gave a TGI (DLD-1 colon) of 44.4 µM, a TGI (M19-MEL melanoma) of 81.7 µM and a TGI (NCI-H226 lung) of 71.7 µM. The TGI (CCRF-CEM leukemia) was 48.5 µM, the TGI (LXFL 529 NSCLC) was > 100 µM and the TGI (T-47D breast) was > 100 µM. For the same compound, the TGI (MDA-MB-231 breast) was 64.8 µM, the TGI (HOP-92 NSCLC) was 73 µM and the TGI (DMS 114 small cell lung) was > 100 µM. The TGI (RPMI-8226 leukemia) was 66.2 µM, the TGI (SR leukemia) was 59.3 µM and the TGI (MOLT-4 leukemia) was 81.9 µM. For the same compound, the TGI (PC-3 prostate) was 67.2 µM, the TGI (SNB-75 CNS) was 88.1 µM and the TGI (DU-145 prostate) was 45.2 µM. The TGI (UACC-62 melanoma) was 27.4 µM, the TGI (K-562 leukemia) was 60.9 µM and the TGI (KM12 colon) was 84.9 µM. The TGI (IGROV1 ovarian) was 53.3 µM, the TGI (OVCAR-3 ovarian) was 82.3 µM and the TGI (HOP-18 NSCLC) was > 100 µM. For the same compound, the TGI (EKVX NSCLC) was 63.4 µM, the TGI (ACHN renal) was 36.1 µM and the TGI (DMS 273 small cell lung) was 49.5 µM. It also gave a TGI (BT-549 breast) of 63.9 µM, a TGI (MDA-MB-435) of 46.6 µM and a TGI (NCI/ADR-RES ovarian) of 41.7 µM. For the same compound, the TGI (MALME-3M melanoma) was 45.2 µM, the TGI (SF-539 CNS) was 41.4 µM and the TGI (NCI-H522 lung) was 26.7 µM. For the same compound, the TGI (UACC-257 melanoma) was 43.4 µM, the TGI (HCC-2998 colon) was > 80.5 µM and the TGI (M14 melanoma) was 53.9 µM. For the same compound, the TGI (SNB-19 CNS) was > 100 µM, the TGI (RXF 393 renal) was 38.6 µM and the TGI (KM20L2 colon) was > 100 µM. For the same compound, the TGI (SF-295 CNS) was 98.1 µM, the TGI (HCT-116 colon) was 42.9 µM and the TGI (786-0 renal) was 53.6 µM. The TGI (A498 renal) was 60.7 µM, the TGI (A549 NSCLC) was 91.8 µM and the TGI (NCI-H460 lung) was 59 µM. For the same compound, the TGI (SN12C renal) was 54.4 µM, the TGI (HOP-62 NSCLC) was > 82.8 µM and the TGI (CAKI-1 renal) was 61.7 µM. For the same compound, the TGI (SNB-78 CNS) was > 100 µM, the TGI (MCF7 breast) was 60.5 µM and the TGI (SF-268 CNS) was 74.6 µM. For the same compound, the TGI (OVCAR-8 ovarian) was 32.3 µM, the TGI (OVCAR-5 ovarian) was 64.7 µM and the TGI (SK-MEL-2 melanoma) was 53.2 µM. The TGI (SK-MEL-5 melanoma) was 34.8 µM, the TGI (COLO 205 colon) was 37.2 µM and the TGI (TK-10 renal) was 74.8 µM. The TGI (HCT-15 colon) was 34.8 µM, the TGI (UO-31 renal) was 58.7 µM and the TGI (HS 578T breast) was > 82.9 µM. For the same compound, the TGI (HL-60(TB) leukemia) was 88.3 µM, the TGI (HT29 colon) was 73 µM and the TGI (LOX IMVI melanoma) was 36.4 µM. For the same compound, the TGI (SW-620 colon) was 49.4 µM, the TGI (MDA-N) was 50.7 µM and the TGI (U251 CNS) was 53.5 µM.

Source: PubChem BioAssay (NCI)
